Laboratory results taken from US20260241013A1, “TARGETED PROTEIN DEGRADATION USING PRODRUGS OF BIFUNCTIONAL COMPOUNDS THAT BIND UBIQUITIN LIGASE AND A TARGET MCL-1 PROTEIN” (Captor Therapeutics S.A., priority 2022, published 2026).
Like-named read-outs stand apart in the source and are kept apart here.

Columns and labels:
Type in all cases: cell-based
CRBN = target: T1, CRBN (Homo sapiens, UniProt Q96SW2); experiment: NanoBRET In-cell CRBN Target Engagement Assay (live and lytic mode), NanoLuc CRBN HEK293 cells
T1 construct: host or cells: HEK293 (NanoLuc CRBN HEK293 cells)
T1 sequence (Q96SW2 whole entry): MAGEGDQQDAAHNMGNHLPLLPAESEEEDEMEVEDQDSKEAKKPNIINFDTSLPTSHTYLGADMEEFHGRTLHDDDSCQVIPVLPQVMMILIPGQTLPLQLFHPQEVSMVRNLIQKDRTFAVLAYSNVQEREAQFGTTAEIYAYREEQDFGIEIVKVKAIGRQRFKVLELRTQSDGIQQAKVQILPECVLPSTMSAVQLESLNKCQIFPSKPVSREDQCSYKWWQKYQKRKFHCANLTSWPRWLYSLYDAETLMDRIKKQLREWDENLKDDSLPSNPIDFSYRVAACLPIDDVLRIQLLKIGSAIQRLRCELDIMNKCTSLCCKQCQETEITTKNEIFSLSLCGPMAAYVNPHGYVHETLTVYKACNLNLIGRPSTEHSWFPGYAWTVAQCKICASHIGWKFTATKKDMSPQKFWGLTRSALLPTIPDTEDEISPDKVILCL
Experimental: Commercially available, NanoBRET In-cell CRBN Target Engagement Assay (NanoBRET CRBN TE Assay), which uses NanoLuc CRBN HEK293 cells and NanoBRET In-cell CRBN Tracer was used (N2910, N2912, PROMEGA) to determine the cell membrane permeability of prodrugs of MCL-1 degraders.
The assay was run in 96-well plate format (cat. 3600, Corning). NanoLuc CRBN HEK293 cells were treated with CRBN Tracer and compounds. Briefly, prepared was cell suspension (0.17×10^6cells/ml) in Opti-MEM without phenol red (Life Technologies). The cells were treated with CRBN Tracer (20× concentrated, 5 μl/well. For the live mode: 0.8 μM and for the lytic: 0.17 μM final concentration) or DMSO vehicle control (20× concentrated, 5 μl/well). Such prepared cells were seeded into the wells of 96-well plate on top of compounds (100× concentrated, 1 μl/well; 11-point 2-fold dilution) pre-plated on them with the help of Echo 555 acoustic dispenser (Labcyte). For the lytic mode assay, Digitonin (0.05 mg/ml, 10× concentrated, 10 μl/well) was added additionally. In the live mode assay, the plate was incubated at 37° C., 5% CO2 for 2 hours, and then at room temperature for 15 minutes to cool down. In the lytic mode assay, there was no incubation. The 3×Complete NanoBRET reagent (50 μl/well) was prepared according to the manufacturer's recommendations, appropriately for live and lytic mode. The plate was incubated for 2 minutes at room temperature and the luminescence and fluorescence readings followed using CLARIOstar Multimode Plate Reader (donor emission RLU—450 nm; acceptor emission RFU—610 nm). RBA value is an indicator of cell membrane permeability (the lower, the better) is calculated from absolute pIC50 (the negative log of the absolute IC50 value when converted to molar) of the live mode assay (pIC50 Live) and the lytic mode assay (pIC50 Lytic).

MCL-1 protein = target: T2, MCL-1 protein (Homo sapiens, UniProt Q07820); experiment: MCL-1 protein degradation in MV4-11 cells, Western blot; details: 6 hours; for MCL-1 protein abundance: MV4-11, % of DMSO control; for MCL-1 protein degradation (Western blot, in words): MV4-11 cells
T2 construct: endogenous in cells; host or cells: MV4-11
T2 sequence (Q07820 whole entry): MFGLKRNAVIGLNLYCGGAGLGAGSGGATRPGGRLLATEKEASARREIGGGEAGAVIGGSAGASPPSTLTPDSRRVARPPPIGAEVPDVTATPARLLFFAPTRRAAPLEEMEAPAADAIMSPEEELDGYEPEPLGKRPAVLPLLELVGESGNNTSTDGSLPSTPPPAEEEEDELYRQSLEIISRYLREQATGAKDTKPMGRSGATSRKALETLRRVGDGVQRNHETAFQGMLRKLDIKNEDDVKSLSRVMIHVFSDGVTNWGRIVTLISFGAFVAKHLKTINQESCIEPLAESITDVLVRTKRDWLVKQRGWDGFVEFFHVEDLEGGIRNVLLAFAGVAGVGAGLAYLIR
Experimental: MV4-11 cells were maintained in IMDM medium, supplemented with penicillin/streptomycin and 10% Fetal Bovine Serum (FBS). MV4-11 cells were collected, centrifuged (250 rcf, 5 min), resuspended in a growth medium containing 10% FBS and counted. The cell suspension was then adjusted to 1×10^6 cells/ml using a growth medium containing 10% FBS. Afterwards, 0.5×10^6 cells were seeded on 24-well plates in 0.5 mL of medium per well. Immediately after seeding, cells were pre-treated for 30 minutes with DMSO or pan-caspase inhibitor—Q-VD-Oph. Next, compounds from stocks pre-diluted in DMSO were added directly to the cell culture medium in appropriate concentrations (the final DMSO concentration was 0.5%). Following the 6 hours treatment with the compounds, cells were collected from the plates and suspended in a lysis buffer (2% SDS, 50 mM Tris, pH 8.0, 100 U/ml Pierce Universal Nuclease for Cell Lysis, complete EDTA-free Protease Inhibitor Cocktail) and incubated on ice for 45 min. The amount of protein was determined via BCA assay, and an equal quantity of each sample was loaded on the precast gel for protein separation. After the antibody staining for MCL-1, α-tubulin, and cleaved forms of PARP and caspase 3, the membranes were washed and signals developed.
Densitometric values for MCL-1 were normalized to total protein level (stain-free membrane). [%] of protein reduction is calculated in comparison to the cells treated with DMSO, which stand for 0%.

MV4-11 cells = experiment: Cell viability assay (CellTiter-Glo, CTG protocol), MV4-11; details: Homo sapiens, MV4-11 (MCL-1 dependent AML line), 24 hours incubation, 1% FBS, read-out: Average pCC50 by molecule MV4-11 (converted)
Excerpt: (§1) The effect of various compounds of the invention on the viability of MV4-11 and ARH-77 cell lines was investigated, using the CTG protocol described below.
(§2) MV4-11 cell lines are derived from acute myeloid leukaemia and it is described in the literature as a MCL-1 dependent cell line, as opposed to lymphoblast-like ARH-77 cell line, which is described as independent of MCL-1 (Tron A E et al. Nat Commun. 2018; 9: 5341; Caenepeel S et al. Cancer Discov. 2018 December; 8(12): 1582-1597).
(§3) Cells (MV4-11 or ARH-77) were seeded on […] in a growth medium with 1% FBS. Next, compound stocks were pre-diluted in DMSO and added directly to the cell culture media (final DMSO concentration: 0.5%). Compound concentrations used in this assay: 1/3 dilutions starting at 30 μM (9 to 12 points). After 24 hours of incubation, cell viability was evaluated using CellTiter-Gob® Luminescent Cell Viability Assay (Promega, cat #G7572). The luminescence signal was measured using a CLARIOstar Plus Multi-Mode Microplate Reader (574-590 nm).
(§4) Results were normalized to DMSO control. Collected data were analyzed using GraphPad Prism to calculate pCC50 values (i.e. the negative log of the CC50 value). CC50 (50% cytotoxic concentration) is the effective concentration of a cytotoxic compound, which produces 50% of the maximum possible cell death (i.e. the concentration of the compound which is required in order to reduce cell viability by 50%). CC50 is often used rather than IC50 in cell toxicity assays.

[1] = Cell viability assay (CellTiter-Glo, CTG protocol), ARH-77; details: human, ARH-77 cells (lymphoblast-like), ARH-77 (MCL-1 independent line), 24 hours incubation, 1% FBS, read-out: Average pCC50 by molecule ARH-77 (converted)
Excerpt: as §1, §2, §3, §4

[2] = live mode, intact cells, 2 hours at 37° C., read-out: pIC50 (live) (converted)
[3] = lytic mode, digitonin-lysed cells, no incubation, read-out: pIC50 (lytic) (converted)
[4] = 1 nM, + Q-VD-Oph (pan-caspase inhibitor)
[5] = 10 nM, + Q-VD-Oph (pan-caspase inhibitor)
[6] = 100 nM, + Q-VD-Oph (pan-caspase inhibitor)

## CC(=O)OCOC(=O)c1c(CCCOc2cccc3cc(F)ccc23)c2ccc(Cl)c(-c3c(C)nn(C)c3C)c2n1CCN1CCN(C(=O)COc2cccc3c2CN(C2CCC(=O)NC2=O)C3=O)CC1 (stereo not drawn) [Compound 41, Acetoxymethyl 6-chloro-1-(2-(4-(2-((2-(2,6-dioxopiperidin-3-yl)-1-oxoisoindolin-4-yl)oxy)acetyl)piperazin-1-yl)ethyl)-3-(3-((6-fluoronaphthalen-1-yl)oxy)propyl)-7-(1,3,5-trimethyl-1H-pyrazol-4-yl)-1H-indole-2-carboxylate]
CRBN; [2]
  IC50: 7.94 nM
CRBN; [3]
  IC50: 501 nM
MCL-1 protein; [4]
  MCL-1 protein abundance: B (Amount of MCL-1 protein >25% and ≤50% calculated as % of DMSO control)
MCL-1 protein; [5]
  MCL-1 protein abundance: A (Amount of MCL-1 protein ≤25% calculated as % of DMSO control)
MCL-1 protein; [6]
  MCL-1 protein abundance: A (Amount of MCL-1 protein ≤25% calculated as % of DMSO control)
MCL-1 protein; in the presence of apoptosis inhibitor
  MCL-1 protein degradation (Western blot, in words): MCL-1 protein degradation
MV4-11 cells
  CC50: < 1 nM
[1]
  CC50 at 24 h: > 10 µM

## CCOCCOCCOC(=O)OC(C)OC(=O)c1c(CCCOc2cccc3cc(F)ccc23)c2ccc(Cl)c(-c3c(C)nn(C)c3C)c2n1CCN1CCN(C(=O)COc2cccc3c2CN(C2CCC(=O)NC2=O)C3=O)CC1 (stereo not drawn) [Compound 101, 4-Oxo-3,5,8,11-tetraoxatridecan-2-yl 6-chloro-1-(2-(4-(2-((2-(2,6-dioxopiperidin-3-yl)-1-oxoisoindolin-4-yl)oxy)acetyl)piperazin-1-yl)ethyl)-3-(3-((6-fluoronaphthalen-1-yl)oxy)propyl)-7-(1,3,5-trimethyl-1H-pyrazol-4-yl)-1H-indole-2-carboxylate]
CRBN; [2]
  IC50: 63.1 nM
CRBN; [3]
  IC50: 794 nM
MV4-11 cells
  CC50: < 31.6 nM
[1]
  CC50 at 24 h: > 31.6 µM

## Cc1nn(C)c(C)c1-c1c(Cl)ccc2c(CCCOc3cccc4cc(F)ccc34)c(C(=O)OCOC(=O)C(C)(C)C)n(CCN3CCN(C(=O)COc4cccc5c4CN(C4CCC(=O)NC4=O)C5=O)CC3)c12 (stereo not drawn) [Compound 69, (6-Chloro-1-{2-[4-(2-{[2-(2,6-dioxopiperidin-3-yl)-1-oxo-2,3-dihydro-1H-isoindol-4-yl]oxy}acetyl)piperazin-1-yl]ethyl}-3-{3-[(6-fluoronaphthalen-1-yl)oxy]propyl}-7-(1,3,5-trimethyl-1H-pyrazol-4-yl)-1H-indole-2-carbonyloxy)methyl 2,2-dimethylpropanoate]
CRBN; [2]
  IC50: 39.8 nM
CRBN; [3]
  IC50: 6310 nM
MCL-1 protein; [4]
  MCL-1 protein abundance: C (Amount of MCL-1 protein >50% and <75% calculated as % of DMSO control)
MCL-1 protein; 1 nM, without Q-VD-Oph
  MCL-1 protein abundance: C (Amount of MCL-1 protein >50% and <75% calculated as % of DMSO control)
MCL-1 protein; [5]
  MCL-1 protein abundance: B (Amount of MCL-1 protein >25% and ≤50% calculated as % of DMSO control)
MCL-1 protein; 10 nM, without Q-VD-Oph
  MCL-1 protein abundance: B (Amount of MCL-1 protein >25% and ≤50% calculated as % of DMSO control)
MCL-1 protein; [6]
  MCL-1 protein abundance: B (Amount of MCL-1 protein >25% and ≤50% calculated as % of DMSO control)
MCL-1 protein; 100 nM, without Q-VD-Oph
  MCL-1 protein abundance: A (Amount of MCL-1 protein ≤25% calculated as % of DMSO control)
MCL-1 protein; apoptosis not blocked
  MCL-1 protein degradation (Western blot, in words): MCL-1 protein degradation
MV4-11 cells
  CC50: < 10 nM
[1]
  CC50 at 24 h: > 31.6 µM

## Cc1nn(C)c(C)c1-c1c(Cl)ccc2c(CCCOc3cccc4cc(F)ccc34)c(C(=O)OCOC(=O)C(C)(C)C)n(CCN3CCN(C(=O)Cn4c(C)nc5c(C(=O)NC6CCC(=O)NC6=O)cccc54)CC3)c12 (stereo not drawn) [Compound 70, (6-Chloro-1-{2-[4-(2-{4-[(2,6-dioxopiperidin-3-yl)carbamoyl]-2-methyl-1H-1,3-benzodiazol-1-yl}acetyl)piperazin-1-yl]ethyl}-3-{3-[(6-fluoronaphthalen-1-yl)oxy]propyl}-7-(1,3,5-trimethyl-1H-pyrazol-4-yl)-1H-indole-2-carbonyloxy)methyl 2,2-dimethylpropanoate]
CRBN; [2]
  IC50: 25.1 nM
CRBN; [3]
  IC50: 7940 nM
MV4-11 cells
  CC50: < 10 nM
[1]
  CC50 at 24 h: > 31.6 µM
